Assay results reported in publication PMC5909127, “Optimization of a “bump-and-hole” approach to allele-selective BET bromodomain inhibition” (Chemical Science, 2018).

Legend:
[1] = tested on: GFP-BRD4 L/V constructs with NF-κB-RE/luc2P reporter in HEK293T cells; experiment: NF-κB luciferase assay; format: cell-based, human; settings: 1 µM, inhibiting either individual BD of BRD4
Protocol: To provide additional functional insights into the individual roles of BD1 vs. BD2 beyond chromatin binding, a luciferase assay was developed to monitor the expression of NF-κB target genes, inspired by work of Zou et al.[45] […] This luciferase induction was maintained with L/V mutations (but not L/A), consistent again with more WT-like functionality of L/V compared to L/A (Fig. 9A).
12 – NF-κB Luciferase Assay
Luciferase experiments were performed in human HEK293T cells seeded in a 24-well plate at 100 000 cells in […]
pBABE NF-κB-RE/luc2P reporter plasmid. Cells were transfected using Lipofectamine™ LTX (Invitrogen) with PLUS™ reagent, with each well receiving 0.5 µg of each plasmid, 2.5 µl LTX and 0.5 µl PLUS reagent. The next day cells were treated with compounds, giving a final concentration of 1 µM compound and 0.01% DMSO. 6 hours later cells were washed with PBS, lysed with passive lysis buffer (Promega) and stored at -20°C.
Luciferase activity was measured suing the Promega luciferase assay. In a black 384-well plate 3µl of clarified lysate was mixed with 15µl luciferase assay reagent and after 15 minutes luminescence was measured in a Pherastar FS. […]
NMR spectra were recorded on a Bruker 500 Ultrashield or a Bruker Ascend 400. […] High Resolution Mass Spectra (HRMS) were recorded on a Bruker micrOTOF. […]

D2S (h) = D2S (h) (Homo sapiens, UniProt P14416); experiment: CEREP ExpresSProfile; settings: read-out: Mean % of control specific binding (±SD)
Chain of D2S (h) (P14416 1-414 isoform P14416-2): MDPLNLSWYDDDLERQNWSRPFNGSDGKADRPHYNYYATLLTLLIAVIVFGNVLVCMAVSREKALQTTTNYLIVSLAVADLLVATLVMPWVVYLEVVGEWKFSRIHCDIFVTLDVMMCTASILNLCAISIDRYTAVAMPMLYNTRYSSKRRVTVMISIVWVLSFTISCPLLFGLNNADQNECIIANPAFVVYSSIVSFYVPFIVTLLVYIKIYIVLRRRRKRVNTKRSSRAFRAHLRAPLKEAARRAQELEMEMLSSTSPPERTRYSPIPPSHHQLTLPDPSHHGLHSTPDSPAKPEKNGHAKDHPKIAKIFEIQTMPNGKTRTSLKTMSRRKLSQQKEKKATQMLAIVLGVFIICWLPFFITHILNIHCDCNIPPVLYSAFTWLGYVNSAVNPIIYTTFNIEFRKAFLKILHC

delta (DOP) (h) = delta (DOP) (h) (Homo sapiens, UniProt P41143); experiment: CEREP ExpresSProfile; settings: read-out: Mean % of control specific binding (±SD)
Chain of delta (DOP) (h) (P41143 whole entry): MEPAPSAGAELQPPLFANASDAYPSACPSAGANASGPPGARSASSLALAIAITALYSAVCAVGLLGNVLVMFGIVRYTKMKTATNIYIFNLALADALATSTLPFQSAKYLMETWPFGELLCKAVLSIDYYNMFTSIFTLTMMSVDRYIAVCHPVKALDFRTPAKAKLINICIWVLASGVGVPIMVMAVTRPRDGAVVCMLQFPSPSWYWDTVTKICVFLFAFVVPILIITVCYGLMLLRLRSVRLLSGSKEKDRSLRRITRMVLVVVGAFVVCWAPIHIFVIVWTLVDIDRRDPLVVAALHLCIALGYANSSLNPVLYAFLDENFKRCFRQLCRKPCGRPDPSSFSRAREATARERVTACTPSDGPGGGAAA
Text: (§1) Receptor Reference Compound Mean % of control specific
Receptor & Ion-Channel Screening
CEREP ExpresSProfile panel

BZD (central) = experiment: CEREP ExpresSProfile; format: binding; settings: 1 µM
KV channel = experiment: CEREP ExpresSProfile; format: binding; settings: 1 µM
Text: as §1
Receptor & Ion-Channel Screening
CEREP ExpresSProfile panel

ETA (h) = ETA (h) (Homo sapiens, UniProt P25101); experiment: CEREP ExpresSProfile; settings: read-out: Mean % of control specific binding (±SD)
Chain of ETA (h) (P25101 21-427): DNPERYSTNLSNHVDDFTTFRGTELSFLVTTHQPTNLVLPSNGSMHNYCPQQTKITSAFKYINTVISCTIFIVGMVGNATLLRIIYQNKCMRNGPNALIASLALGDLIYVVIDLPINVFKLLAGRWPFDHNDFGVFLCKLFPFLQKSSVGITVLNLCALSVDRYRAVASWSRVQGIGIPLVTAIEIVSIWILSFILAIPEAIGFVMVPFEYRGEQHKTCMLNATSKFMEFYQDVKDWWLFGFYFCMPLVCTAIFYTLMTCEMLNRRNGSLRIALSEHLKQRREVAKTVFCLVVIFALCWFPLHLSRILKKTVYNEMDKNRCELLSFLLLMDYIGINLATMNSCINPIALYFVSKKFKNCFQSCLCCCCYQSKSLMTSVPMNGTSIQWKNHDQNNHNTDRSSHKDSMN
Text: as §1
Receptor & Ion-Channel Screening
CEREP ExpresSProfile panel

M2 (h) = M2 (h) (Homo sapiens, UniProt P08172); experiment: CEREP ExpresSProfile; settings: read-out: Mean % of control specific binding (±SD)
Chain of M2 (h) (P08172 whole entry): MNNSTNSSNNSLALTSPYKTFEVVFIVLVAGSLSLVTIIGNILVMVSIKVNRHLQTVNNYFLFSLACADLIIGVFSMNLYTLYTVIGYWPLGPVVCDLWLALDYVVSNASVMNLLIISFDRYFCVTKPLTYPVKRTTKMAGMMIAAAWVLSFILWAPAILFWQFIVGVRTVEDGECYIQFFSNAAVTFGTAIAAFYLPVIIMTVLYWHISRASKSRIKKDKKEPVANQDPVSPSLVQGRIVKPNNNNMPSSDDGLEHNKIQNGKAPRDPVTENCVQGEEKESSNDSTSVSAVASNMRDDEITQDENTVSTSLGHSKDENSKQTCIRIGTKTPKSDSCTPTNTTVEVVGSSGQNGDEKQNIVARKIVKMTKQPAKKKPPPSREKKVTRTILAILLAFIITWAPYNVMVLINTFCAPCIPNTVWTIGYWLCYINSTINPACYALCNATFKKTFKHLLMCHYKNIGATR

MT1 (ML1A) (h) = MT1 (ML1A) (h) (Homo sapiens, UniProt P48039); experiment: CEREP ExpresSProfile; format: binding
Chain of MT1 (ML1A) (h) (P48039 whole entry): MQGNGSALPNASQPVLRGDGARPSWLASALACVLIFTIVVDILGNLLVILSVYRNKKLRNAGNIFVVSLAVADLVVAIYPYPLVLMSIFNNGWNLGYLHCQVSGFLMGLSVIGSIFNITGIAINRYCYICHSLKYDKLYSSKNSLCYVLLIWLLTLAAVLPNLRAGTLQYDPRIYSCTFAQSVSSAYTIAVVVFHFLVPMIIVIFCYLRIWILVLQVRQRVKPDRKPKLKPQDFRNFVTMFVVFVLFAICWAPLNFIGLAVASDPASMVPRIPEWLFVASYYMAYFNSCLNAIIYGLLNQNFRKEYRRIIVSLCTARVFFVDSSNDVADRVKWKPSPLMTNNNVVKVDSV

H2 (h) = H2 (h) (Homo sapiens, UniProt P25021); experiment: CEREP ExpresSProfile; settings: read-out: Mean % of control specific binding (±SD)
Chain of H2 (h) (P25021 whole entry): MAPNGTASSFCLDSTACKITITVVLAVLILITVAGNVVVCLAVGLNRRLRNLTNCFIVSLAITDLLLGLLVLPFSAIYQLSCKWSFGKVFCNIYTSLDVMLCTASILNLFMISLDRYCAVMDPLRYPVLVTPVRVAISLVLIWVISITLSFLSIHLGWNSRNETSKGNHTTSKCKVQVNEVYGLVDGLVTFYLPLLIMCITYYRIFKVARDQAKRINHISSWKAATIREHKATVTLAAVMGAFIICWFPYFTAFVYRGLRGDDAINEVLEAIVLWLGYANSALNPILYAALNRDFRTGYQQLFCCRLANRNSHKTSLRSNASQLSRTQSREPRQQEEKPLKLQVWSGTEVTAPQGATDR

NK3 (h) = NK3 (h) (Homo sapiens, UniProt P29371); experiment: CEREP ExpresSProfile; settings: read-out: Mean % of control specific binding (±SD)
Chain of NK3 (h) (P29371 whole entry): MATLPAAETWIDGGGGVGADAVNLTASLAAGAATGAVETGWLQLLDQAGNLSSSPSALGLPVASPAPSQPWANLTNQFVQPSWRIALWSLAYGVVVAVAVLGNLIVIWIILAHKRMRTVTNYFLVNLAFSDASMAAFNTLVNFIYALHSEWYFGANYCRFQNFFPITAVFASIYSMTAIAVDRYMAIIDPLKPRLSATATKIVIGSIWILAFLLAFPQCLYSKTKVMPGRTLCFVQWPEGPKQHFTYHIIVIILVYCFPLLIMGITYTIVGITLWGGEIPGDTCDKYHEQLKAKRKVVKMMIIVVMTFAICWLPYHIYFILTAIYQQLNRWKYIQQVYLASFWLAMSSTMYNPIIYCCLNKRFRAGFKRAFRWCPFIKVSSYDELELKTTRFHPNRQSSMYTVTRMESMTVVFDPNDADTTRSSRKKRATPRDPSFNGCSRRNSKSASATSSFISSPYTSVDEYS
Text: as §1
Receptor & Ion-Channel Screening
CEREP ExpresSProfile panel

[2] = target: GFP-labelled L/V BRD4 in U2OS cells (Homo sapiens, UniProt O60885, L387V/L94V); experiment: FRAP; settings: 200 nM, 2 μM SAHA
B2 (h) = B2 (h) (Homo sapiens, UniProt P30411); experiment: CEREP ExpresSProfile; settings: read-out: Mean % of control specific binding (±SD)
A2A (h) = A2A (h) (Homo sapiens, UniProt P29274); experiment: CEREP ExpresSProfile; settings: read-out: Mean % of control specific binding (±SD)
Chain of A2A (h) (P29274 whole entry): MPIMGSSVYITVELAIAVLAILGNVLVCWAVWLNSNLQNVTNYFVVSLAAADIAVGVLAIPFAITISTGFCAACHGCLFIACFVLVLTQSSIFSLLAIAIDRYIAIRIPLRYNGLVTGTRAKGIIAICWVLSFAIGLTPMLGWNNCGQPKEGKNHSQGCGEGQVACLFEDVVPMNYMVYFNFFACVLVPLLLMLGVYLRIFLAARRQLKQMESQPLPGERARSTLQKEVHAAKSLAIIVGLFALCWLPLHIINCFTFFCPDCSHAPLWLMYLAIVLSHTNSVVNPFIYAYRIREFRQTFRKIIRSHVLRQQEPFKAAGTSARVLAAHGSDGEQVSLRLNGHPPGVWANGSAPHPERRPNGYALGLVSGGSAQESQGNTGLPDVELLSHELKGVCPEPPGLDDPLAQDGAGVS

NOP (ORL1) (h) = NOP (ORL1) (h) (Homo sapiens, UniProt P41146); experiment: CEREP ExpresSProfile; settings: read-out: Mean % of control specific binding (±SD)
Chain of NOP (ORL1) (h) (P41146 whole entry): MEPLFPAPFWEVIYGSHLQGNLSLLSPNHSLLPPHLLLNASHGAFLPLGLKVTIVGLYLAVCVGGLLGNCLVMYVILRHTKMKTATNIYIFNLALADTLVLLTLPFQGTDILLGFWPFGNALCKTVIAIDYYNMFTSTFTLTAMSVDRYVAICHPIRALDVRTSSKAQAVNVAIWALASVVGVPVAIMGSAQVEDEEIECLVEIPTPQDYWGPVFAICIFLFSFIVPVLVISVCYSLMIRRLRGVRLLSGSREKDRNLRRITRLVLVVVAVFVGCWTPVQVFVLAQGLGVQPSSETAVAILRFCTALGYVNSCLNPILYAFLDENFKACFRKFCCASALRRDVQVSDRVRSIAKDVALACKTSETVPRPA

NK2 (h) = NK2 (h) (Homo sapiens, UniProt P21452); experiment: CEREP ExpresSProfile; settings: read-out: Mean % of control specific binding (±SD)
beta 1 (h) = beta 1 (h) (Homo sapiens, UniProt P08588); experiment: CEREP ExpresSProfile; settings: read-out: Mean % of control specific binding (±SD)
Chain of beta 1 (h) (P08588 whole entry): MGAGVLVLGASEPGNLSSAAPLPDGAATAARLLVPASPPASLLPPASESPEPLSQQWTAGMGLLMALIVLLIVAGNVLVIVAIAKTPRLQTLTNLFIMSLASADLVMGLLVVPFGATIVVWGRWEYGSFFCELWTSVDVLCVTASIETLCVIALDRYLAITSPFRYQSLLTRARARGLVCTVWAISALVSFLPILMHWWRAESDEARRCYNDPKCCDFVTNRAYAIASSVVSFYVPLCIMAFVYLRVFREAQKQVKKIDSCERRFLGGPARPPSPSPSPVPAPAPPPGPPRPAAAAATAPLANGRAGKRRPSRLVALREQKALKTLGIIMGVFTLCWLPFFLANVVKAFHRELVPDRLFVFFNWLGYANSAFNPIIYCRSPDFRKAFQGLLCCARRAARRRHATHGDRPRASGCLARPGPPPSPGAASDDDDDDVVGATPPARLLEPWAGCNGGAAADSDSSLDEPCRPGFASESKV

[3] = tested on: 55 receptors, transporters and ion channels; experiment: receptor, transporter and ion channel screen; format: binding; settings: 1 μM, whole panel with the exception of MT1
M1 (h) = M1 (h) (Homo sapiens, UniProt P11229); experiment: CEREP ExpresSProfile; settings: read-out: Mean % of control specific binding (±SD)
Y2 (h) = Y2 (h) (Homo sapiens, UniProt P49146); experiment: CEREP ExpresSProfile; settings: read-out: Mean % of control specific binding (±SD)
Chain of Y2 (h) (P49146 whole entry): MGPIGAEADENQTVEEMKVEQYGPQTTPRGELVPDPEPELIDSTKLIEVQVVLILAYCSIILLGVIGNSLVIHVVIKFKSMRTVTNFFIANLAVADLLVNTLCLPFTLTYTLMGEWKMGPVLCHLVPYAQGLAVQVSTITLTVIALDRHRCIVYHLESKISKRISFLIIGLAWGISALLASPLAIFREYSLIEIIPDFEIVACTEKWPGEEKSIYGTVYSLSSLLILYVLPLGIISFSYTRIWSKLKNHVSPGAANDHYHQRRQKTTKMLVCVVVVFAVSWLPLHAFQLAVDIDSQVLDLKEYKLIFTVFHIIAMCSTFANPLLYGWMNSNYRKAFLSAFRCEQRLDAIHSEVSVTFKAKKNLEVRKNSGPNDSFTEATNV

A1 (h) = A1 (h) (Homo sapiens, UniProt P30542); experiment: CEREP ExpresSProfile; settings: read-out: Mean % of control specific binding (±SD)
Chain of A1 (h) (P30542 whole entry): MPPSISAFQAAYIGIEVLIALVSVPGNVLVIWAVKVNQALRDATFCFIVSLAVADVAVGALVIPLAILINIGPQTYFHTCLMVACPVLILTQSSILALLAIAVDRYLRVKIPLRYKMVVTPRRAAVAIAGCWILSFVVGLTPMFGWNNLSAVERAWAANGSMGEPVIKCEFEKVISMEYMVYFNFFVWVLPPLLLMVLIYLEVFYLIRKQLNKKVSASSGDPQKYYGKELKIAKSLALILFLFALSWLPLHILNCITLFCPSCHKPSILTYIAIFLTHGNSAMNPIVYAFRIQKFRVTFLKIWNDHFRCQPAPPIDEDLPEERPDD
Text: as §1
Receptor & Ion-Channel Screening
CEREP ExpresSProfile panel

Plasma Half-life = settings: BALB/c, mouse, pH 7.4
Intrinsic Clearance = settings: mouse liver microsomes
BRDT BD2 WT = BRDT BD2 WT (Homo sapiens, UniProt Q58F21); experiment: competitive AlphaLISA; format: binding
BRD2 BD1 L/V = BRD2 BD1 L/V (Homo sapiens, UniProt P25440, L110V); experiment: competitive AlphaLISA; format: binding
Chain of BRD2 BD1 L/V (P25440 71-176 L110V limits assumed): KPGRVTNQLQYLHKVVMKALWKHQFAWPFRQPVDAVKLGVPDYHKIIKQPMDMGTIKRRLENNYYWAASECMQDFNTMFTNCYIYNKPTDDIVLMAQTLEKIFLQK

COC(=O)[C@H](C)[C@@H]1N=C(c2ccc(Cl)cc2)c2ccc(OC)cc2-n2c(C)nnc21 [(2R,3S)-7]
effect on NF-κB signalling [1]: strongly impacted on NF-κB signalling | remaining activity at 1 µM (D2S (h)): 95% | remaining activity at 1 µM (delta (DOP) (h)): 100% | Mean % of control specific binding (±SD) (BZD (central)): 105 (10) % | Mean % of control specific binding (±SD) (KV channel): 100 (0) % | remaining activity at 1 µM (ETA (h)): 87% | remaining activity at 1 µM (M2 (h)): 105% | inhibition at 1 µM (MT1 (ML1A) (h)): 77% | remaining activity at 1 µM (MT1 (ML1A) (h); read-out: Mean % of control specific binding (±SD)): 23% | remaining activity at 1 µM (H2 (h)): 117% | remaining activity at 1 µM (NK3 (h)): 99% | displacement of L/V BRD4 (FRAP) [2]: almost complete displacement | remaining activity at 1 µM (B2 (h)): 98% | remaining activity at 1 µM (A2A (h)): 99% | remaining activity at 1 µM (NOP (ORL1) (h)): 94% | remaining activity at 1 µM (NK2 (h)): 101% | remaining activity at 1 µM (beta 1 (h)): 95% | inhibition [3]: no more than 20% | remaining activity at 1 µM (M1 (h)): 104% | remaining activity at 1 µM (Y2 (h)): 110% | remaining activity at 1 µM (A1 (h)): 100%

CC[C@@H](C(=O)OC)[C@@H]1N=C(c2ccc(Cl)cc2)c2ccc(OC)cc2-n2c(C)nnc21 (racemic) [Compound 8]
half-life at 50 µM (Plasma Half-life): > 180 min | CL int (Intrinsic Clearance): 4.1 ml min^–1 g^–1 | IC50 (BRDT BD2 WT): 3.98 µM | IC50 (BRD2 BD1 L/V): 316 nM
